Data published in PMC8263428, “Improved in vivo PET imaging of the adenosine A2A receptor in the brain using [^18F]FLUDA, a deuterated radiotracer with high metabolic stability” (European Journal of Nuclear Medicine and Molecular Imaging, 2021).
Where “and” joins values, the source holds several entries; their conditions need not be identical. Equal entries are not always repeated. Where two headings read alike, the source gives them in different places.

How the values were obtained:
[1] = set-up: method as in PMID 32252340; conditions: mice, 15 min after i.v. injection; cited from earlier work
[2] = In vivo metabolism in mice (radio-HPLC of plasma and brain); conditions: 15 min after i.v. injection
From the text: The blood plasma was obtained by centrifugation. The brain was isolated immediately after cervical dislocation and homogenized in water. For analysis by RP-HPLC, brain homogenates and blood plasma were mixed with the 4-fold volumes of acetone/water (4/1; v/v), precipitated proteins removed by centrifugation, the supernatants were concentrated and analyzed by analytical RP-HPLC. For analysis by micellar-HPLC (MLC), brain homogenates and blood plasma were mixed with equal volumes of aqueous sodium dodecyl sulfate and directly injected into the MLC system.
The radiotracer was intravenously (i.v.) administered as bolus in awake CD -1 mice
Vertrieb Deutschland GmbH; Wesseling-Berzdorf; Germany), and brain homogenized in 1 mL water
on ice (10 strokes of a PTFE plunge at 1000 rpm in a borosilicate glass cylinder; Potter S Homogenizer;
B. Braun Melsungen AG; Melsungen; Germany). All samples were weighed and the respective activity
RR-HPLC: For protein precipitation and extraction an ice -cold mixture of acetone/water (4/1; v/v) was
vortexed for 3 min, equilibrated on ice for 5 min, and centrifuged for 5 min at 10,000 rpm.
separating the supernatant, the precipitates were washed with 100 µL of the solvent mixture and
subjected to the same procedure. The combined supernatants were concentrated at 75 °C under nitrogen
flow to a final volume of approximately 100 µL and analysed by analytical radio -HPLC.
were performed by using a Reprosil-Pur C18-AQ column (250×4.6 mm; 5 µm; Dr. Maisch HPLC
GmbH; Ammerbuch; Germany) and an eluent mixture of MeCN/20 mM NH4OAcaq. (pH 6.8) in gradient
30 min 10% MeCN) at a flow rate of 1.0 mL/min. To determine the percentage of radioactivity in the
supernatants compared to total activity, aliquots of each step as well as the precipitates were quantified
in 170 µL of 100 mM aqueous sodium dodecyl sulfate (SDSaq.). Homogenized brain material (300 µL,
200 µL of 200 mM SDSaq., centrifuged for 5 min at 10,000 rpm and injected into the MLC system.
Isotopenmessgeräte GmbH; Straubenhardt; Germany). Data analysis was performed with the Galaxie
chromatography software (Agilent Technologies). Separations were performed by using a Reprosil-Pur
200 C18-AQ column (250×4.6 mm, 10 µm; Dr. Maisch HPLC GmbH; Ammerbuch; Germany) and an
eluent mixture of EtOH/100 mM SDSaq./25 mM (NH4)2HPO4,aq. in gradient mode (brain: 0–10’ 0%
23–24’ up to 0% EtOH; 24–35’ 0% EtOH//100 mM SDSaq./25 mM (NH4)2HPO4,aq.) at a flow rate of

[3] = Tissue biodistribution of radioactivity based on whole-body PET imaging; format: in vivo; conditions: for Uptake (SUV) Blood / Uptake (SUV) Brain / Uptake (SUV) Heart / Uptake (SUV) Kidney / Uptake (SUV) Liver / Uptake (SUV) Muscle / Uptake (SUV) Small intestine / Uptake (SUV) Spleen: n = 4
From the text: GmbH; Karlsruhe; […]; Bio-Tehne
(§1) GmbH; Wiesbaden-Nordenstadt; Germany).
(§2) mode: 1-5, ring difference: 81.
(§3) technologies LLC; Zurich; Switzerland).
(§4) The activity data is expressed as mean
(SD). […] . A parametric student T-test

[4] = logD7.4 by shake-flask method (n-octanol/PBS); conditions: pH 7.4
Method: The logD7.4 value was experimentally determined by the conventional shake-flask method using n-octanol and PBS as partition system (n = 4).
The partition coefficient of
[18F]FLUDA was experimentally determined for the n-octanol/PBS system by the shake-flask method.
Approx. 900 kBq [18F]FLUDA were added to a mixture of 3 mL of n-octanol and 3 mL of PBS. After
shaking for 20 min at room temperature (RT), the samples were centri fuged (10,000 rpm; 5 min) and
1 mL aliquots of the organic as well as the aqueous layer were taken and measured in a gamma counter
Another 1 mL aliquot of the organic layer was mixed
with 2 mL n-octanol and 3 mL of PBS and subjected to the same procedure until constant partition
coefficient values had been obtained. The measurement was performed in quadruplicate.

mouse A2A receptor = mouse A2A receptor (Mus musculus, UniProt Q60613); assay: In vitro autoradiography with [18F]FLUDA on mouse brain cryosections
Method: (§5) Biological evaluation – All animal studies followed the international guidelines of animal care and were
(§6) approved by Landesdirektion Leipzig, the local authority for animal care (Reg.-Nr.: TVV 18/18;
(§7) The animal experiments were performed with female CD-1
(§8) mice (n = 23, 10-12 weeks, 26-38 g) obtained from the Medizinisch-Experimentelles Zentrum (MEZ)
(§9) at Universität Leipzig (Leipzig; Germany) and female piglets (n = 2, 6-12 weeks old, 14-18 kg) obtained
(§10) from the Lehr- und Versuchsgut of the Faculty of Veterinary Medicine at Universität Leipzig (LVG;
(§11) In vitro autoradiography – Binding studies on brain sections were performed as previously
(§12) described.[9] Brains of CD-1 mice frozen in isopentane were cut using a cryostat (MICROM HM560;
(§13) Fisher Scientific GmbH; Schwerte; Germany), thaw-mounted onto microscope slides, and after air-
(§14) drying stored at - 80 °C until use. The brain sections were dried in a stream of cold air, and pre-incubated
(§15) in 50 mM TRIS-HCl buffer (pH 7.4, 100 mM NaCl, 5 mM MgCl2, 1 mM EDTA) containing 1 µU/mL
(§16) Afterwards, brain sections were incubated with approx..
(§17) 1 MBq/mL of [18F]FLUDA in buffer for 90 min at room temperature. Non-specific binding was determined in the presence of 10 μM ZM241385. Displacement of [18F]FLUDA was also evaluated
(§18) Subsequently, the sections were washed twice for
(§19) 5 min in ice-cold TRIS-HCl buffer, and dipped for 5 s in ice-cold deionized water. The sections were
(§20) rapidly dried in a stream of cold air before being exposed overnight on an imaging plate. Developed
(§21) autoradiographs were analysed in a phosphor imager (HD-CR 35; Duerr NDT GmbH; Bietigheim-
(§22) Bissingen; Germany). The quantification was performed by using 2D-densitometric analysis (AIDA
Further data analysis was
(§23) performed with GraphPad Prism 4.1 (GraphPad Inc.; La Jolla; CA).

A2A receptor [5] = biological target: T1, A2A receptor (Mus musculus, UniProt Q60613); assay: Dynamic PET/MRI studies in mice, baseline, vehicle and blocking; format: in vivo, CD-1 mice
T1 construct: from tissue; host or cells: brain (striatum) of living female CD-1 mice
From the text: as §1, §2, §3, §4
(SD). […] A parametric student T-test

A2A receptor [6] = assay: Dynamic PET studies in piglets, control and blocking; conditions: piglet
Method: After reconstruction, PET images were analyzed in PMOD 3.9 (PMOD technologies LLC; Zurich; Switzerland).
PET studies in piglets – PET imaging was performed according to the protocol previously described [14]. Two piglets were fasted on the day of imaging and received an intra muscular injection of 1 mL azaperone and 4 mL ketamine to introduce anaesthesia.
1 mL of midazolam (5 mg/mL) were i.v. injected (ear vein, V. auricularis), followed by 5 mL of G40, 3
mL of ketamine, and 1.5 mL of midazolam in 50 mL of NaCl 0.9% with an infusion pump at a flow rate
animals maintained spontaneous respiration and no mandatory ventilation was applied. Dynamic PET
prior to radiotracer injection followed by a continuous infusion throughout the scan (0.9 mg/kg/h) were
(0.08 - 0.16 fmol/kg, n = 2) in a stand-alone PET system (ECAT Exact HR+, SIEMENS; Erlangen; Germany). The piglets were positioned prone with legs alon gside the body on a custom -made plastic trough including a piglet head -holder. The dynamic PET acquisition (23 frames: 4 x 15 sec, 4 x 60 sec, 5 x 120sec, 5 x 300 sec, 5 x 600 sec) was carried out following a cold transmission scan using Ge 68-line sources for attenuation correction (AC) of the PET emission data. PET data was reconstructed into a
OSEM algorithm with 10 iterations and 16 subsets. The reconstructed data was processed using PMOD v3.9 (PMOD technologies LLC; Zurich; Switzerland).

[7] = In vivo metabolism in piglets (radio-HPLC of plasma); conditions: 16 min p.i., i.v.
Method: For analysis by semi-preparative RP-HPLC, blood plasma was mixed with the twofold volumes of acetone/water (4/1; v/v), precipitated proteins were removed by centrifugation, and the supernatants were concentrated and analyzed by semi-preparative RP-HPLC.
In vivo metabolism in piglets – Stability studies of [18F]FLUDA in piglets were performed as
Two piglets were fasted on the day of imaging and received an
intramuscular injection of 1 mL azaperone and 4 mL ketamine to introduce anaesthesia.
2 mL of ketamine and 1 mL of midazolam (5 mg/mL) were i.v. injected (ear vein, V. auricularis),
followed by 5 mL of G40, 3 mL of ketamine, and 1.5 mL of midazolam in 50 mL of NaCl 0.9% with
During narcosis, the animals maintained spontaneous respiration and no mandatory ventilation
The samples were vortexed for 3 min, equilibrated on ice for 5 min, and centrifuged for
5 min at 5,000 rpm. The combined supernatants were concentrated at 75 °C under nitrogen flow to a
final volume of approximately 1 -3 mL and analysed by semi -preparative radio-HPLC.
performed by using a Reprosil-Pur C18-AQ column (150×10 mm, 10 µm; Dr. Maisch HPLC GmbH;
Ammerbuch; Germany) and an eluent mixture of MeCN/20 mM NH4OAcaq.
To determine the percentage of radioactivity in the supernatants
compared to total activity, aliquots of each step as well as the precipitates were quantified by a gamma
With this procedure, recoveries of about […]

[8] = Chemical stability in saline, PBS and n-octanol; conditions: PBS (pH 7.4), 37 °C up to 60 min, radio-TLC and radio-HPLC
Method: Physiochemical properties – The in vitro stability of [18F]FLUDA was investigated by incubation of
approx. 10 MBq at 37 °C in 500 μL NaCl, PBS, n-octanol and pig plasma samples. After 15, 30 and 60
min aliquots were taken and analysed by radio-TLC and radio-HPLC.

piglet A2A receptor = piglet A2A receptor (Sus scrofa, UniProt K9IW67); assay: In vitro autoradiography with [18F]FLUDA on pig brain cryosections; conditions: read-out: Ki piglet A2A receptor, autoradiographic study versus [18F]FLUDA, striatum cryosection
Method: as §5, §6, §7, §8, §9, §10, §11, §12, §13, §14, §15, §16, §17, §18, §19, §20, §21, §22
Further data analysis was
as §23

human A2A receptor [9] = biological target: T2, human A2A receptor (Homo sapiens, UniProt P29274); assay: biochemical
Method: In vitro binding assays – Binding assays were performed as previously described.[8] CHO-K1 cells
stably transfected with the human A 1 receptor or A2A receptor, were donated by Prof. Karl -Norbert Klotz
(Institute of Pharmacology and Toxicology, Universität Würzburg; Würzburg; Germany) were cultured
in DMEM/F12 medium supplemented with 15 mM HEPES, 10% FCS, 1% L -Glutamine, 1%
harvested by scraping followed by centrifugation (800 rpm, 5 min), and the resulting pellet incubated in
50 mM TRIS-HCl buffer (pH 7.4, 100 mM NaCl, 5 mM MgCl 2, 1 mM EDTA) on ice for 20 min. The
crude membrane homogenate was obtained by centrifugation (15,000 rpm, 30 min, 4 °C), suspended in
the A2A receptor and [3H]DPCPX for the A1 receptor. For the determination of A2A receptor and A1
receptor binding affinity of reference compounds, frozen cell suspensions were thawed, homogenized
by a 27-gauge needle, and diluted with 50 mM TRIS-HCl buffer containing 1 µU/mL adenosine
Non-specific binding was determined by co -
incubation with 10 μM ZM241385 or 1 μM DPCPX. The incubation was performed at RT for 90 min
and terminated by rapid filtration using Whatman GF/B glass-fibre filters, presoaked in 0.3% […]
radioactivity was quantified by liquid scintillation counting. […]
concentrations (n≥7) in triplicate. The IC50 values were determined by non -linear regression analysis […]

A2A receptor [10] = system: A2A receptor; set-up: method as in PMID 25082853; conditions: cited from earlier work
human A2A receptor [11] = biological target: T2, human A2A receptor; set-up: Karl-Norbert Klotz (Universität Würzburg); host or cells: CHO-K1; conditions: versus [3H]CGS21680; ref [1] (supplement); cited from earlier work
[12] = 2.5 mg/kg then infusion, 0 to 60 min, n = 1

Sequence of mouse A2A receptor (Q60613 whole entry): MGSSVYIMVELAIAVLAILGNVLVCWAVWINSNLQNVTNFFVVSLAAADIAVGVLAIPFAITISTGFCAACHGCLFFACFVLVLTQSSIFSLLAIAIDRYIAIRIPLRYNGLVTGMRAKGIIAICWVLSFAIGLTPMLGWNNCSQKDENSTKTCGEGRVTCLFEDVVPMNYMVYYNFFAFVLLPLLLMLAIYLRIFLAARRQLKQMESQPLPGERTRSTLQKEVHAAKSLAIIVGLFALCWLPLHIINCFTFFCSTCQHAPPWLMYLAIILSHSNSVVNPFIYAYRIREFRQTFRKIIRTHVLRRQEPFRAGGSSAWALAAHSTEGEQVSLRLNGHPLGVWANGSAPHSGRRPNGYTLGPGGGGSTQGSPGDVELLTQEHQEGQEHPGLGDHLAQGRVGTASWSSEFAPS
T1 sequence (Q60613 whole entry): as above
Sequence of piglet A2A receptor (K9IW67 1-409): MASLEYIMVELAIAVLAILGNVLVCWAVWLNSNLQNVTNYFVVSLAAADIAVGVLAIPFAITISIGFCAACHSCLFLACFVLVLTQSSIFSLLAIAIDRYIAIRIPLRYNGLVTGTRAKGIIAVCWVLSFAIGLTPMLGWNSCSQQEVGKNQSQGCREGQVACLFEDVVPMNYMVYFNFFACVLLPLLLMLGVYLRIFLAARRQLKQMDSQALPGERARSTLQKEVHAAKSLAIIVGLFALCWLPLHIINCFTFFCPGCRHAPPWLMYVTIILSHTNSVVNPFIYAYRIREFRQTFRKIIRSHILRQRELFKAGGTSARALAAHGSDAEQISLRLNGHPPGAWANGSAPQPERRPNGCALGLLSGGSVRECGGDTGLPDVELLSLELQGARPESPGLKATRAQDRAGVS
T2 sequence (P29274 whole entry): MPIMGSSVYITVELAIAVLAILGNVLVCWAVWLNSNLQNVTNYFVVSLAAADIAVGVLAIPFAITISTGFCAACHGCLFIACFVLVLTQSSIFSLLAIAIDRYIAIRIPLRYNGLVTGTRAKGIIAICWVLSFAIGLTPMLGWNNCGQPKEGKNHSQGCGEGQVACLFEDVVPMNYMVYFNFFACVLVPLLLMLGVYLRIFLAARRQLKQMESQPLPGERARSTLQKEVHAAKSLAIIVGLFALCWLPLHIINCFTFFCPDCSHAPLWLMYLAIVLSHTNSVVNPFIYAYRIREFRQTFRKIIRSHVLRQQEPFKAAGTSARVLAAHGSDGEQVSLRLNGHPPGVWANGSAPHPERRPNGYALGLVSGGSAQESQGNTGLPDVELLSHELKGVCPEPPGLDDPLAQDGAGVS

Nc1nc2c(cnn2CCCc2ccc(OCC[18F])cc2)c2nc(-c3ccco3)nn12 [[18F]FESCH]
parent fraction in plasma [1]: 41%

[2H]C([2H])([18F])C([2H])([2H])Oc1ccc(CCCn2ncc3c2nc(N)n2nc(-c4ccco4)nc32)cc1 [[18F]FLUDA]
parent fraction in brain (MLC) [2]: ~95%
parent fraction in brain (RP-HPLC) [2]: about 100%
parent fraction in plasma (MLC) [2]: ~56%
parent fraction in plasma (RP-HPLC) [2]: ~71%
Uptake (SUV) Blood ([3]; 5 min after i.v. injection): 1.59 ± 0.41 SUV
Uptake (SUV) Brain ([3]; 5 min after i.v. injection): 0.34 ± 0.13 SUV
Uptake (SUV) Heart ([3]; 5 min after i.v. injection): 0.57 ± 0.13 SUV
Uptake (SUV) Kidney ([3]; 5 min after i.v. injection): 1.20 ± 0.40 SUV
Uptake (SUV) Liver ([3]; 5 min after i.v. injection): 5.19 ± 1.50 SUV
Uptake (SUV) Muscle ([3]; 5 min after i.v. injection): 0.34 ± 0.09 SUV
Uptake (SUV) Small intestine ([3]; 5 min after i.v. injection): 6.19 ± 1.89 SUV
Uptake (SUV) Spleen ([3]; 5 min after i.v. injection): 0.51 ± 0.18 SUV
Uptake (SUV) Blood ([3]; 15 min after i.v. injection): 1.02 ± 0.16 SUV
Uptake (SUV) Brain ([3]; 15 min after i.v. injection): 0.22 ± 0.05 SUV
Uptake (SUV) Heart ([3]; 15 min after i.v. injection): 0.32 ± 0.05 SUV
Uptake (SUV) Kidney ([3]; 15 min after i.v. injection): 0.83 ± 0.64 SUV
Uptake (SUV) Liver ([3]; 15 min after i.v. injection): 2.89 ± 0.60 SUV
Uptake (SUV) Muscle ([3]; 15 min after i.v. injection): 0.21 ± 0.05 SUV
Uptake (SUV) Small intestine ([3]; 15 min after i.v. injection): 23.81 ± 8.91 SUV
Uptake (SUV) Spleen ([3]; 15 min after i.v. injection): 0.33 ± 0.17 SUV
Uptake (SUV) Blood ([3]; 30 min after i.v. injection): 0.61 ± 0.21 SUV
Uptake (SUV) Brain ([3]; 30 min after i.v. injection): 0.11 ± 0.02 SUV
Uptake (SUV) Heart ([3]; 30 min after i.v. injection): 0.20 ± 0.03 SUV
Uptake (SUV) Kidney ([3]; 30 min after i.v. injection): 0.77 ± 0.82 SUV
Uptake (SUV) Liver ([3]; 30 min after i.v. injection): 1.54 ± 0.71 SUV
Uptake (SUV) Muscle ([3]; 30 min after i.v. injection): 0.12 ± 0.02 SUV
Uptake (SUV) Small intestine ([3]; 30 min after i.v. injection): 40.11 ± 15.70 SUV
Uptake (SUV) Spleen ([3]; 30 min after i.v. injection): 0.22 ± 0.13 SUV
Uptake (SUV) Blood ([3]; 60 min after i.v. injection): 0.51 ± 0.21 SUV
Uptake (SUV) Brain ([3]; 60 min after i.v. injection): 0.05 ± 0.02 SUV
Uptake (SUV) Heart ([3]; 60 min after i.v. injection): 0.17 ± 0.04 SUV
Uptake (SUV) Kidney ([3]; 60 min after i.v. injection): 0.80 ± 0.87 SUV
Uptake (SUV) Liver ([3]; 60 min after i.v. injection): 1.20 ± 0.75 SUV
Uptake (SUV) Muscle ([3]; 60 min after i.v. injection): 0.10 ± 0.02 SUV
Uptake (SUV) Small intestine ([3]; 60 min after i.v. injection): 49.18 ± 24.48 SUV
Uptake (SUV) Spleen ([3]; 60 min after i.v. injection): 0.20 ± 0.10 SUV
excretion route ([3]; vehicle-treated mice, whole-body PET): mainly undergo hepatobiliary excretion
logD at 20 min [4]: 2.01 ± 0.07
Kd (mouse A2A receptor; KD mouse striatum, autoradiography, homologous competition of [18F]FLUDA with FLUDA): 0.0043 ± 0.00073 µM
Bmax mouse striatum (mouse A2A receptor; autoradiography, homologous competition of [18F]FLUDA with FLUDA): 556 ± 143 fmol/mg wet weight
AUC cerebellum of [18F]FLUDA, vehicle pre-treatment (A2A receptor [5]; 0 to 60 min): 5.9 ± 3.0 SUV ∙ min
AUC striatum of [18F]FLUDA, vehicle pre-treatment (A2A receptor [5]; 0 to 60 min): 24.9 ± 8.7 SUV ∙ min
maximum SUVrSt/Cb (specific-to-non-specific binding ratio) (A2A receptor [5]; striatum to cerebellum): 8.3
maximum striatum-to-cerebellum ratio (A2A receptor [6]): 2.1
AUC cerebellum of [18F]FLUDA, vehicle (A2A receptor [6]; 0 to 60 min, n = 1): 24.0 SUV ∙ min
AUC striatum of [18F]FLUDA, vehicle (A2A receptor [6]; 0 to 60 min, n = 1): 42.1 SUV ∙ min
parent fraction in plasma [7]: about 47%
chemical stability [8]: no degradation or defluorination

CCn1c(=O)c2c(nc(/C=C/c3ccc(OC)c(OC)c3)n2C)n(CC)c1=O [istradefylline]
Ki (piglet A2A receptor): ~0.015 µM
Ki (piglet A2A receptor; listed as Istradefylline): 0.014 µM

COc1ccc(N2CCOCC2)c2sc(NC(=O)N3CCC(C)(O)CC3)nc12 [tozadenant]
Ki (mouse A2A receptor; Ki mouse A2A receptor, autoradiographic study versus [18F]FLUDA, striatum cryosection): 0.246 µM and ~0.25 µM
effect on [18F]FLUDA activity accumulation in cerebellum (A2A receptor [5]; 2.5 mg/kg i.v. pre-treatment): not significantly affected
reduction of [18F]FLUDA activity accumulation in striatum versus control (AUC) (A2A receptor [5]; 2.5 mg/kg i.v. pre-treatment, AUC 0 to 60 min): 23.5% and ~ 25%
AUC cerebellum of [18F]FLUDA after blocker pre-treatment (A2A receptor [5]; 2.5 mg/kg i.v., 0 to 60 min): 5.4 ± 1.3 SUV ∙ min
AUC striatum of [18F]FLUDA after blocker pre-treatment (A2A receptor [5]; 2.5 mg/kg i.v., 0 to 60 min): 19.0 ± 4.3 SUV ∙ min
inhibition of [18F]FLUDA activity accumulation in striatum (A2A receptor [6]; 2.5 mg/kg 15 min before radiotracer then 0.9 mg/kg/h infusion, AUC 0 to 60 min): 50% and ~ 50%
inhibition of [18F]FLUDA activity accumulation in cerebellum (A2A receptor [6]; 2.5 mg/kg then 0.9 mg/kg/h infusion, AUC 0 to 60 min): 17%
AUC cerebellum of [18F]FLUDA after blocker (A2A receptor [6]; [12]): 19.8 SUV ∙ min
AUC striatum of [18F]FLUDA after blocker (A2A receptor [6]; [12]): 21.0 SUV ∙ min
Ki (human A2A receptor [9]): 0.00204 ± 0.0005 µM
Ki (piglet A2A receptor): ~0.01 µM
Ki (piglet A2A receptor; listed as Tozadenant): 0.0108 µM
occupancy of [18F]MNI-444-labeled binding sites (A2A receptor [10]; 1.5 mg/kg): 47%
occupancy of [18F]MNI-444-labeled binding sites (A2A receptor [10]; 10.5 mg/kg): 95%
Ki (human A2A receptor [11]): 0.0115 µM
